# According to US20230059747A1, “A COOLING PREPARATION” (SYMRISE AG, priority 2019, published 2023):
# Experiments:
# [1] = test system: rat eyes; details: cited from earlier work
# [2] = test system: panel of 5 experienced testers; experiment: Long lasting cooling sensation: panel evaluation of toothpaste compositions; assay type: in vivo, human; details: added to standard toothpaste
# Procedure: Phenylalkennals and homovanillic acid esters were added alone and in combination to a standard toothpaste composition. A panel of 5 experienced testers evaluated the compositions with regard to initial cooling effect during brushing, directly after brushing and the long last effect after 5 and after 10 minutes. The evaluation was done according to a score card from 1=almost no cooling effect to 10=strong cooling sensation. Example 1 is according to the invention, examples C1 to C3 serve for comparison.
SMILES,Pain sensation in rat eyes (assessment in words) [1],Cooling sensation during and directly after brushing (in words) [2],Long lasting cooling sensation after 5 and after 10 minutes (in words) [2]
CCCCCCCCCOC(=O)Cc1ccc(O)c(OC)c1 [nonyl ester of homovanillic acid],active,,
CCCCCCCCOC(=O)Cc1ccc(O)c(OC)c1 [octyl ester of homovanillic acid],active,,
"C/C=C(/C=O)c1ccccc1 [Phenylbutenal, 2-Phenyl-but-2-enal]",,improves the cooling sensation during and directly after brushing,does not have any long lasting effect
COC(=O)Cc1ccc(O)c(OC)c1 [methyl ester of homovanillic acid],active,,
CCCCCCCCCCCCOC(=O)Cc1ccc(O)c(OC)c1 [dodecyl ester of homovanillic acid],active,,
"CCCOC(=O)Cc1ccc(O)c(OC)c1 [II-17, Propyl-2-(4-hydroxy-3-methoxyphenyl) acetate]",active,,
